SMILES strings stand for the structures.

Sequence of Full-length inactive AKT1 (P31749 whole entry): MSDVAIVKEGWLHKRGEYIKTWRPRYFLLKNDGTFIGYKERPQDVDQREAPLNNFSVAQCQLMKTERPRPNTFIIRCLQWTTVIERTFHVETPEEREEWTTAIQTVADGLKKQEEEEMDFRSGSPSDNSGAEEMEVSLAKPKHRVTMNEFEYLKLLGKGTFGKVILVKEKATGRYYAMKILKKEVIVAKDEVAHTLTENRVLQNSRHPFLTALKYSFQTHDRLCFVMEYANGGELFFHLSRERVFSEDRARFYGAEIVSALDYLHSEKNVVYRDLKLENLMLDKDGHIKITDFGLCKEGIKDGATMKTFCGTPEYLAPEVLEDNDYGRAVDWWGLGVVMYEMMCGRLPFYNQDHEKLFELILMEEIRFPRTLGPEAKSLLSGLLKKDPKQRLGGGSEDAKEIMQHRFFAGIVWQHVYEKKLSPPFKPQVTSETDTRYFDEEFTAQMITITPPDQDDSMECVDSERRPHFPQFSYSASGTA

One experiment addresses Full-length inactive AKT1 (Homo sapiens, UniProt P31749). Briefly: Inactive Akt Alpha Screen Assay. Type of experiment: biochemical. As to conditions: values not marked with "*": AlphaScreen assay; read-out: Akt1 IC50, (AlphaScreen). The protocol:
AKT1 activity was assayed using the GSK3-derived biotinylated peptide substrate, crosstide (biotin-[…]), and AlphaScreen™ (Amplified Luminescent Proximity Homogeneous Assay) technology. AKT1 activation was achieved by the addition of the activating kinases PDK1 and MAPKAPK2, lipid vesicles, and ATP. The extent of peptide phosphorylation was determined using a phospho-AKT substrate antibody and acceptor beads conjugated to Protein A and donor beads conjugated to streptavidin that bind to the biotin on the peptide. Excitation of the donor beads converted ambient oxygen to excited singlet oxygen which, when in close proximity to acceptor beads, reacted with acceptor beads resulting in signal amplification.
Assay plates were incubated for 90 minutes at room temperature in the dark, and the plates were read on a Perkin Elmer Envision Multilabel plate reader (excitation wavelength: […], emission wavelength: 570 nm).
A general note: Alpha assays give light when donor and acceptor beads are brought close together.
Take `Nc1ncccc1-c1nc2cc(-c3ccsc3)cnc2n1-c1ccc(CNC(=O)c2ccccc2)cc1` [Example 137, N-{4-[2-(2-aminopyridin-3-yl)-6-thiophen-3-yl-3H-imidazo[4,5-b]pyridin-3-yl]benzyl}benzamide]: the IC50 (usually the concentration at which inhibition is half-maximal) is 50 nM.

As to `CS(=O)(=O)c1ccc(-c2cnc3c(c2)nc(-c2cccnc2N)n3-c2ccc(CNC(=O)c3ccccc3)cc2)cc1` [Example 138, N-(4-{2-(2-aminopyridin-3-yl)-6-[4-(methylsulfonyl)phenyl]-3H-imidazo[4,5-b]pyridin-3-yl}benzyl)benzamide], the IC50 was found to be 120 nM.

`Nc1ncccc1-c1nc2cc(-c3ccc4cc[nH]c4c3)cnc2n1-c1ccc(CNC(=O)c2ccccc2)cc1` [Example 139, N-{4-[2-(2-aminopyridin-3-yl)-6-(1H-indol-6-yl)-3H-imidazo[4,5-b]pyridin-3-yl]benzyl}benzamide]: the IC50 came out at 360 nM.

In the case of `Cc1cccc(-c2cnc3c(c2)nc(-c2cccnc2N)n3-c2ccc(CNC(=O)c3ccccc3)cc2)c1` [Example 140, N-{4-[2-(2-aminopyridin-3-yl)-6-(3-methylphenyl)-3H-imidazo[4,5-b]pyridin-3-yl]benzyl}benzamide], the IC50 was determined as 1100 nM.

For `Nc1ncccc1-c1nc2cc(-c3cncnc3)cnc2n1-c1ccc(CNC(=O)c2ccccc2)cc1` [Example 142, N-{4-[2-(2-aminopyridin-3-yl)-6-pyrimidin-5-yl-3H-imidazo[4,5-b]pyridin-3-yl]benzyl}benzamide], the concentration for half-maximal inhibition (IC50) was 190 nM.

Consider `Nc1ncccc1-c1nc2cc(-c3ccc(Br)cc3)cnc2n1-c1ccc(CNC(=O)c2ccccc2)cc1` [Example 143, N-{4-[2-(2-aminopyridin-3-yl)-6-(4-bromophenyl)-3H-imidazo[4,5-b]pyridin-3-yl]benzyl}benzamide], for which the half-maximal inhibitory concentration (IC50) is 170 nM.

`Nc1ncccc1-c1nc2cc(-c3ccncc3)cnc2n1-c1ccc(CNC(=O)c2ccccc2)cc1` [Example 145, N-{4-[2-(2-aminopyridin-3-yl)-6-pyridin-4-yl-3H-imidazo[4,5-b]pyridin-3-yl]benzyl}benzamide]: the IC50 is 160 nM.

On to `Nc1ncccc1-c1nc2cc(Br)cnc2n1-c1ccc(CNS(=O)(=O)c2ccccc2)cc1` [Example 146, N-{4-[2-(2-aminopyridin-3-yl)-6-bromo-3H-imidazo[4,5-b]pyridin-3-yl]benzyl}benzenesulfonamide], for which the IC50 is 420 nM.

As to `Nc1ncccc1-c1nc2cc(Br)cnc2n1-c1ccc(CNS(=O)(=O)c2ccccc2Cl)cc1` [Example 147, N-{4-[2-(2-aminopyridin-3-yl)-6-bromo-3H-imidazo[4,5-b]pyridin-3-yl]benzyl}-2-chlorobenzenesulfonamide], the IC50 was 440 nM.

`COc1ccc(S(=O)(=O)NCc2ccc(-n3c(-c4cccnc4N)nc4cc(Br)cnc43)cc2)cc1OC` [Example 148, N-{4-[2-(2-aminopyridin-3-yl)-6-bromo-3H-imidazo[4,5-b]pyridin-3-yl]benzyl}-3,4-dimethoxybenzenesulfonamide]: the half-maximal inhibitory concentration (IC50) turned out to be 240 nM.

On to `COc1cccc(S(=O)(=O)NCc2ccc(-n3c(-c4cccnc4N)nc4cc(Br)cnc43)cc2)c1` [Example 149, N-{4-[2-(2-aminopyridin-3-yl)-6-bromo-3H-imidazo[4,5-b]pyridin-3-yl]benzyl}-3-methoxybenzenesulfonamide], for which the half-inhibitory concentration (IC50) was determined as 260 nM.

On to `Nc1ncccc1-c1nc2cc(Br)cnc2n1-c1ccc(CNS(=O)(=O)c2ccc(F)c(Cl)c2)cc1` [Example 150, N-{4-[2-(2-aminopyridin-3-yl)-6-bromo-3H-imidazo[4,5-b]pyridin-3-yl]benzyl}-3-chloro-4-fluorobenzenesulfonamide], for which the IC50 came to 2300 nM.

Consider `Nc1ncccc1-c1nc2cc(Br)cnc2n1-c1ccc(CNS(=O)(=O)C2CCCCC2)cc1` [Example 151, N-{4-[2-(2-aminopyridin-3-yl)-6-bromo-3H-imidazo[4,5-b]pyridin-3-yl]benzyl}cyclohexanesulfonamide], for which the IC50 worked out at 340 nM.

Turning to `CC(C)CS(=O)(=O)NCc1ccc(-n2c(-c3cccnc3N)nc3cc(Br)cnc32)cc1` [Example 152, N-{4-[2-(2-aminopyridin-3-yl)-6-bromo-3H-imidazo[4,5-b]pyridin-3-yl]benzyl}-2-methylpropane-1-sulfonamide], the IC50 was 240 nM.

As for `CCCCS(=O)(=O)NCc1ccc(-n2c(-c3cccnc3N)nc3cc(Br)cnc32)cc1` [Example 153, N-{4-[2-(2-aminopyridin-3-yl)-6-bromo-3H-imidazo[4,5-b]pyridin-3-yl]benzyl}butane-1-sulfonamide], the IC50 was 440 nM.

`Cc1noc(C)c1S(=O)(=O)NCc1ccc(-n2c(-c3cccnc3N)nc3cc(Br)cnc32)cc1` [Example 154, N-{4-[2-(2-aminopyridin-3-yl)-6-bromo-3H-imidazo[4,5-b]pyridin-3-yl]benzyl}-3,5-dimethylisoxazole-4-sulfonamide]: the IC50 amounted to 1200 nM.

As for `Nc1ncccc1-c1nc2cc(Br)cnc2n1-c1ccc(CNS(=O)(=O)c2cccs2)cc1` [Example 155, N-{4-[2-(2-aminopyridin-3-yl)-6-bromo-3H-imidazo[4,5-b]pyridin-3-yl]benzyl}thiophene-2-sulfonamide], the IC50 stood at 140 nM.

On to `Nc1ncccc1-c1nc2cc(Br)cnc2n1-c1ccc(CNS(=O)(=O)c2cccc(Cl)c2)cc1` [Example 156, N-{4-[2-(2-aminopyridin-3-yl)-6-bromo-3H-imidazo[4,5-b]pyridin-3-yl]benzyl}-3-chlorobenzenesulfonamide], for which the IC50 was 1200 nM.

The experiment is the same for the next values; noted with them: values not marked with "*"; read-out: Akt1 IC50, (AlphaScreen).
In the case of `Nc1ncccc1-c1nc2cc(Br)cnc2n1-c1ccc(CNS(=O)(=O)c2ccc(F)cc2)cc1` [Example 158, N-{4-[2-(2-aminopyridin-3-yl)-6-bromo-3H-imidazo[4,5-b]pyridin-3-yl]benzyl}-4-fluorobenzenesulfonamide], the IC50 was 490 nM.

For the compound `Nc1ncccc1-c1nc2cc(Br)cnc2n1-c1ccc(CNS(=O)(=O)c2c(F)cccc2F)cc1` [Example 159, N-{4-[2-(2-aminopyridin-3-yl)-6-bromo-3H-imidazo[4,5-b]pyridin-3-yl]benzyl}-2,6-difluorobenzenesulfonamide], the 50% inhibitory concentration (IC50) came out at 200 nM.

Regarding `Nc1ncccc1-c1nc2cc(Br)cnc2n1-c1ccc(CNS(=O)(=O)c2cccc(F)c2)cc1` [Example 160, N-{4-[2-(2-aminopyridin-3-yl)-6-bromo-3H-imidazo[4,5-b]pyridin-3-yl]benzyl}-3-fluorobenzenesulfonamide], the IC50 turned out to be 330 nM.

Turning to `Nc1ncccc1-c1nc2cc(Br)cnc2n1-c1ccc(CNS(=O)(=O)c2ccc3c(c2)CCO3)cc1` [Example 161, N-{4-[2-(2-aminopyridin-3-yl)-6-bromo-3H-imidazo[4,5-b]pyridin-3-yl]benzyl}-2,3-dihydro-1-benzofuran-5-sulfonamide], the IC50 came to 290 nM.

`Cc1ccc(S(=O)(=O)NCc2ccc(-n3c(-c4cccnc4N)nc4cc(Br)cnc43)cc2)cc1` [Example 162, N-{4-[2-(2-aminopyridin-3-yl)-6-bromo-3H-imidazo[4,5-b]pyridin-3-yl]benzyl}-4-methylbenzenesulfonamide]: the IC50 stood at 450 nM.

Turning to `Cc1cccc(S(=O)(=O)NCc2ccc(-n3c(-c4cccnc4N)nc4cc(Br)cnc43)cc2)c1` [Example 163, N-{4-[2-(2-aminopyridin-3-yl)-6-bromo-3H-imidazo[4,5-b]pyridin-3-yl]benzyl}-3-methylbenzenesulfonamide], the IC50 turned out to be 400 nM.

The values are drawn from patent US8501770B2 (ArQule, Inc., priority 2009, dated 2013).
